Legend:
Format in all cases: in vivo
[1] = system: redroot pigweed (Amaranthus retroflexus, AMARE); assay: Post-emerge test, greenhouse herbicide activity screening; settings: post-emerge, 14 days after application, rating scale 0-100
Summary of the method: (§1)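 Compounds in acetone were track-sprayed at 187 l/ha, 15–1000 g ai/ha, onto sandy loam pots. Pre-emerge seeds were sown one day before spraying, with surface watering afterwards. Post-emerge plants were at the 2–3 leaf stage and sprayed with 0.25% v/v non-ionic surfactant. Injury was rated 0–100 at 14 days.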

[2] = system: green foxtail (Setaria viridis, SETVI); assay: as above; settings: post-emerge, 14 days after application, rating scale 0-100
Summary of the method: as §1

[3] = system: lambsquarters (Chenopodium album, CHEAL); assay: as above; settings: post-emerge, 14 days after application, rating scale 0-100
Summary of the method: as §1

[4] = system: barnyardgrass (Echinochloa crus-galli, ECHCG); assay: as above; settings: post-emerge, 14 days after application, rating scale 0-100
Summary of the method: as §1

[5] = system: velvetleaf (Abutilon theophrasti, ABUTH); assay: as above; settings: post-emerge, 14 days after application, rating scale 0-100
Summary of the method: as §1

[6] = system: johnsongrass (Sorghum halepense, SORHA); assay: as above; settings: post-emerge, 14 days after application, rating scale 0-100
Summary of the method: as §1

[7] = system: common ragweed (Ambrosia artemisizfolia L., AMBEL); assay: as above; settings: post-emerge, 14 days after application, rating scale 0-100
Summary of the method: as §1

[8] = system: large crabgrass (Digitaria sanguinalis, DIGSA); assay: as above; settings: post-emerge, 14 days after application, rating scale 0-100
Summary of the method: as §1

[9] = system: ivyleaf morningglory (Ipomoea hederacea, IPOHE); assay: as above; settings: post-emerge, 14 days after application, rating scale 0-100
Summary of the method: as §1

[10] = system: sicklepod (Cassia obtusifolia, CASOB); assay: as above; settings: post-emerge, 14 days after application, rating scale 0-100
Summary of the method: as §1

[11] = system: field corn (Zea mays L., var. Dekalb 535, CORN); assay: Post-emerge test, crop safety; settings: post-emerge, 14 days after application, rating scale 0-100
Summary of the method: (§2)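 Sandy loam pots; pre-emerge: sown 1 d pre-spray, surface-watered after, then bottom-watered. Post-emerge: sown 8–21 d before, 2–3 leaf stage, + 0.25% v/v NIS, bottom-watered. Acetone, 187 l/ha track spray, 15–1000 g ai/ha. 0–100 injury score, day 14.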

[12] = system: upland rice (Oryza sp., var. Tebonnet, RICE); assay: Post-emerge test, crop safety; settings: post-emerge, 14 days after application, rating scale 0-100
Summary of the method: as §2

[13] = system: green foxtail (Setaria viridis, SETVI); assay: Pre-emerge test, greenhouse herbicide activity screening; settings: rated 14 days after application, 0 = no damage, 100 = complete death
Summary of the method: as §2

[14] = system: lambsquarters (Chenopodium album, CHEAL); assay: as above; settings: rated 14 days after application, 0 = no damage, 100 = complete death
Summary of the method: as §2

[15] = system: barnyardgrass (Echinochloa crus-galli, ECHCG); assay: as above; settings: rated 14 days after application, 0 = no damage, 100 = complete death
Summary of the method: as §2

[16] = system: velvetleaf (Abutilon theophrasti, ABUTH); assay: as above; settings: rated 14 days after application, 0 = no damage, 100 = complete death
Summary of the method: as §2

[17] = system: johnsongrass (Sorghum halepense, SORHA); assay: as above; settings: rated 14 days after application, 0 = no damage, 100 = complete death
Summary of the method: as §2

[18] = system: common ragweed (Ambrosia artemisizfolia L., AMBEL); assay: as above; settings: rated 14 days after application, 0 = no damage, 100 = complete death
Summary of the method: as §2

[19] = system: large crabgrass (Digitaria sanguinalis, DIGSA); assay: as above; settings: rated 14 days after application, 0 = no damage, 100 = complete death
Summary of the method: as §2

[20] = system: ivyleaf morningglory (Ipomoea hederacea, IPOHE); assay: as above; settings: rated 14 days after application, 0 = no damage, 100 = complete death
Summary of the method: as §2

[21] = system: sicklepod (Cassia obtusifolia, CASOB); assay: as above; settings: rated 14 days after application, 0 = no damage, 100 = complete death
Summary of the method: as §2

[22] = system: field corn (Zea mays L., var. Dekalb 535, CORN); assay: Pre-emerge test, crop safety; settings: rated 14 days after application, 0 = no damage, 100 = complete death
Summary of the method: as §1

[23] = system: upland rice (Oryza sp., var. Tebonnet, RICE); assay: Pre-emerge test, crop safety; settings: rated 14 days after application, 0 = no damage, 100 = complete death
Summary of the method: as §1

[24] = system: redroot pigweed (Amaranthus retroflexus, AMARE); assay: Pre-emerge test, greenhouse herbicide activity screening; settings: rated 14 days after application, 0 = no damage, 100 = complete death
Summary of the method: as §2

SMILES: COc1c(Cl)cc(F)c(-n2c(=O)cc(C(F)(F)F)n(C)c2=O)c1NC(=O)c1cccc(F)c1F [2-41]
- phytotoxicity rating AMARE ([1]; 63 g ai/ha): 95
- phytotoxicity rating AMARE ([1]; 250 g ai/ha): 100
- phytotoxicity rating SETVI ([2]; 63 g ai/ha): 20
- phytotoxicity rating SETVI ([2]; 250 g ai/ha): 30
- phytotoxicity rating CHEAL ([3]; 63 g ai/ha): 95
- phytotoxicity rating CHEAL ([3]; 250 g ai/ha): 100
- phytotoxicity rating ECHCG ([4]; 63 g ai/ha): 0
- phytotoxicity rating ECHCG ([4]; 250 g ai/ha): 30
- phytotoxicity rating ABUTH ([5]; 63 g ai/ha): 100
- phytotoxicity rating ABUTH ([5]; 250 g ai/ha): 100
- phytotoxicity rating SORHA ([6]; 63 g ai/ha): 0
- phytotoxicity rating SORHA ([6]; 250 g ai/ha): 70
- phytotoxicity rating AMBEL ([7]; 63 g ai/ha): 50
- phytotoxicity rating AMBEL ([7]; 250 g ai/ha): 95
- phytotoxicity rating DIGSA ([8]; 63 g ai/ha): 0
- phytotoxicity rating DIGSA ([8]; 250 g ai/ha): 20
- phytotoxicity rating IPOHE ([9]; 63 g ai/ha): 100
- phytotoxicity rating IPOHE ([9]; 250 g ai/ha): 100
- phytotoxicity rating CASOB ([10]; 63 g ai/ha): 60
- phytotoxicity rating CASOB ([10]; 250 g ai/ha): 95
- phytotoxicity rating CORN ([11]; 63 g ai/ha): 15
- phytotoxicity rating CORN ([11]; 250 g ai/ha): 80
- phytotoxicity rating RICE ([12]; 63 g ai/ha): 10
- phytotoxicity rating RICE ([12]; 250 g ai/ha): 70
- Pre-emerge Herbicidal Activity, phytotoxicity rating (0-100), SETVI ([13]; 63 g ai/ha): 95
- Pre-emerge Herbicidal Activity, phytotoxicity rating (0-100), SETVI ([13]; 250 g ai/ha): 100
- Pre-emerge Herbicidal Activity, phytotoxicity rating (0-100), CHEAL ([14]; 63 g ai/ha): 100
- Pre-emerge Herbicidal Activity, phytotoxicity rating (0-100), CHEAL ([14]; 250 g ai/ha): 100
- Pre-emerge Herbicidal Activity, phytotoxicity rating (0-100), ECHCG ([15]; 63 g ai/ha): 50
- Pre-emerge Herbicidal Activity, phytotoxicity rating (0-100), ECHCG ([15]; 250 g ai/ha): 100
- Pre-emerge Herbicidal Activity, phytotoxicity rating (0-100), ABUTH ([16]; 63 g ai/ha): 100
- Pre-emerge Herbicidal Activity, phytotoxicity rating (0-100), ABUTH ([16]; 250 g ai/ha): 100
- Pre-emerge Herbicidal Activity, phytotoxicity rating (0-100), SORHA ([17]; 63 g ai/ha): 30
- Pre-emerge Herbicidal Activity, phytotoxicity rating (0-100), SORHA ([17]; 250 g ai/ha): 100
- Pre-emerge Herbicidal Activity, phytotoxicity rating (0-100), AMBEL ([18]; 63 g ai/ha): 100
- Pre-emerge Herbicidal Activity, phytotoxicity rating (0-100), AMBEL ([18]; 250 g ai/ha): 100
- Pre-emerge Herbicidal Activity, phytotoxicity rating (0-100), DIGSA ([19]; 63 g ai/ha): 70
- Pre-emerge Herbicidal Activity, phytotoxicity rating (0-100), DIGSA ([19]; 250 g ai/ha): 100
- Pre-emerge Herbicidal Activity, phytotoxicity rating (0-100), IPOHE ([20]; 63 g ai/ha): 90
- Pre-emerge Herbicidal Activity, phytotoxicity rating (0-100), IPOHE ([20]; 250 g ai/ha): 100
- Pre-emerge Herbicidal Activity, phytotoxicity rating (0-100), CASOB ([21]; 63 g ai/ha): 80
- Pre-emerge Herbicidal Activity, phytotoxicity rating (0-100), CASOB ([21]; 250 g ai/ha): 100
- Pre-emerge phytotoxicity rating (0-100), crop damage, CORN ([22]; 63 g ai/ha): 35
- Pre-emerge phytotoxicity rating (0-100), crop damage, CORN ([22]; 250 g ai/ha): 95
- Pre-emerge phytotoxicity rating (0-100), crop damage, RICE ([23]; 63 g ai/ha): 50
- Pre-emerge phytotoxicity rating (0-100), crop damage, RICE ([23]; 250 g ai/ha): 90
- Pre-emerge Herbicidal Activity, phytotoxicity rating (0-100), AMARE ([24]; 63 g ai/ha): 100
- Pre-emerge Herbicidal Activity, phytotoxicity rating (0-100), AMARE ([24]; 250 g ai/ha): 100

Reference: patent publication US6355799B1, “Substituted benzene compounds, process for their preparation, and herbicidal and defoliant compositions containing them” (ISK Americas Incorporated, priority 1997, dated 2002)
